# Results: patent publication US10214507B2, “Carbazole-containing amides, carbamates, and ureas as cryptochrome modulators” (Reset Therapeutics, Inc., priority 2014, dated 2019)
# Like-named read-outs stand apart in the source and are kept apart here.
# Key:
# [1] = test system: core clock gene mRNAs in liver of Balb/c mice; assay: 24 hour gene expression study, liver mRNA by RT-qPCR, Balb/c mice; assay type: in vivo, mouse; settings: 50 mg/kg BID PO
# Description: E.Z.N.A.® HP Total RNA Isolation Kits (R6812-01 and the protocol described in the Manual, Revised 2010) were utilized to prepare and isolate RNA from the liver samples. To prepare the RNA samples, 10-30 mg of sample was removed from RNA-Later and placed in a 1.5 ml microfuge tube. GTC lysis buffer (700 μl) was added to the tissue, which was homogenized with a rotor-stator homogenizer (e.g. Tissue-Tearor, Model #985370 BioSpec Products with 4.5 mm probe, Cat. #985370-04), and then centrifuged at full speed (>13,000×g) for 5 minutes. The cleared supernatant was transferred by pipetting to a DNA Clearance Column Pre-inserted in a 2 mL Collection Tube. The assembled column was centrifuged at 13,000×g for 1 minute, and the flow-through was saved. An equal volume (700 μl) of 70% ethanol was added to the lysate and mixed. The sample was then applied to a HiBind RNA spin column placed into a 2 ml collection tube, which was centrifuged at 10,000×g for 60 seconds at room temperature. RNA Wash Buffer I (250 μl) was added by pipetting directly onto a new HiBind RNA column inserted in a 2 ml collection tube. The assembled column was centrifuged at 10,000×g for 60 seconds. The RNA column was placed into a new 2 ml collection tube. DNase I stock solution is pipetted (75 μl) directly onto the surface of the HiBind RNA resin in each column (Using DNAse Digestion with RNase Free DNase Set (E1091): for each HiBind RNA column, the DNase I stock solution was prepared as followed: E.Z.N.A.® DNase I Digestion Buffer 73.5μl, RNase Free DNase I (20 Kunitz/μl) 1.5 μl=Total Volume 75 μl.). The column with bound RNA was incubated at room temperature (25-30° C.) for 15 minutes. RNA Wash Buffer I (500 μl) was added to the column and placed on a bench top for 2 minutes. After centrifuging at 10,000×g for 60 seconds, discarding the flow-through, 500 μl of RNA Wash Buffer II was added and centrifuged at 10,000×g for 60 seconds. Another 500 μl of RNA Wash Buffer II was added and the column assembly was centrifuged at 10,000×g for 60 seconds. The column was centrifuged for 2 minutes at maximum speed to completely dry the HiBind matrix. […]
# RediPlate 96 RiboGreen RNA Quantification Kit (Invitrogen) RediPlate standard curve was prepared by transferring 20 μl reconstituted RNA standard to a RediPlate well reconstituted in 180 μl RediPlate TE buffer. […] After transferring 5 μl to RediPlate well reconstituted in 195 μl TE buffer and incubating 10 min. at RT, Fluorescence Intensity of wells with standards and samples were read in a Tecan M200 with Excitation set at 480 nm and Emission set at 520 nm with the gain set to −70%. […] A standard curve was generated in GraphPad Prism and sample readings (unknowns) are interpolated via linear regression analysis, and the RNA sample concentrations were calculated. […]
# [2] = test system: core clock gene mRNAs in livers of ICR mice; assay: Four day study, liver clock gene mRNA by RT-qPCR, ICR mice; assay type: in vivo, mouse; settings: 50 mg/kg PO BID 4 days
# Description: Male ICR mice (weighing 30-35 g), obtained from Charles River Laboratories (Hollister, CA), were used for the experiment following at least 3 days of acclimation. Mice were dosed with vehicle (WFI or 10% Kolliphor) or compound (50 mg/kg, dose volume 5 mL/kg, PO) for 4 days BID (twice a day), beginning in the afternoon of the first day. The last dose of compound or vehicle was administered on the morning of harvest. On the day of harvest (6 hours following the final dose), mice were euthanized by CO2 asphyxiation and 50 mg of liver tissue was excised and placed in a tube containing 500 μl of RNA later.
# E.Z.N.A.® HP Total RNA Isolation Kits (R6812-01 and the protocol described in the Manual, Revised 2010) were utilized to prepare and isolate RNA from the liver samples. To prepare the RNA samples, 10-30 mg of sample was removed from RNA-Later and placed in a 1.5 ml microfuge tube. GTC lysis buffer (700 μl) was added to the tissue, which was homogenized with a rotor-stator homogenizer (e.g. Tissue-Tearor, Model #985370 BioSpec Products with 4.5 mm probe, Cat. #985370-04), and then centrifuged at full speed (>13,000×g) for 5 minutes. The cleared supernatant was transferred by pipetting to a DNA Clearance Column Pre-inserted in a 2 mL Collection Tube. The assembled column was centrifuged at 13,000×g for 1 minute, and the flow-through was saved. An equal volume (700 μl) of 70% ethanol was added to the lysate and mixed. The sample was then applied to a HiBind RNA spin column placed into a 2 ml collection tube, which was centrifuged at 10,000×g for 60 seconds at room temperature. RNA Wash Buffer I (250 μl) was added by pipetting directly onto a new HiBind RNA column inserted in a 2 ml collection tube. The assembled column was centrifuged at 10,000×g for 60 seconds. The RNA column was placed into a new 2 ml collection tube. DNase I stock solution is pipetted (75 μl) directly onto the surface of the HiBind RNA resin in each column (Using DNAse Digestion with RNase Free DNase Set (E1091): for each HiBind RNA column, the DNase I stock solution was prepared as followed: E.Z.N.A.® DNase I Digestion Buffer 73.5μl, RNase Free DNase I (20 Kunitz/μl) 1.5 μl=Total Volume 75 μl.). The column with bound RNA was incubated at room temperature (25-30° C.) for 15 minutes. RNA Wash Buffer I (500 μl) was added to the column and placed on a bench top for 2 minutes. After centrifuging at 10,000×g for 60 seconds, discarding the flow-through, 500 μl of RNA Wash Buffer II was added and centrifuged at 10,000×g for 60 seconds. Another 500 μl of RNA Wash Buffer II was added and the column assembly was centrifuged at 10,000×g for 60 seconds. The column was centrifuged for 2 minutes at maximum speed to completely dry the HiBind matrix. The column was placed in a clean 1.5 ml microcentrifuge tube and 40-70 μl of molecular biology grade water is added. After sitting for 1 minute, the column was centrifuged for 2 minutes at maximum speed to elute the RNA. The isolated RNA was collected into the collection tube.
# RediPlate 96 RiboGreen RNA Quantification Kit (Invitrogen) RediPlate standard curve was prepared by transferring 20 μl reconstituted RNA standard to a RediPlate well reconstituted in 180 μl RediPlate TE buffer. For liver RNAs prepared from 30-100 mg of tissue using a kit similar to the Omega Bio-Tek HP Total RNA Kit and eluted in RNAse-free water in a volume of 50 μl (microliters), 5 μl of the total RNA is diluted in 195 μl of RediPlate TE buffer (1:40 dilution of RNA), mix. After transferring 5 μl to RediPlate well reconstituted in 195 μl TE buffer and incubating 10 min. at RT, Fluorescence Intensity of wells with standards and samples were read in a Tecan M200 with Excitation set at 480 nm and Emission set at 520 nm with the gain set to −70%. Alternatively, one can use the FlexStation 3 with Ex 488 nm and Em 525 nm and a Cutoff of 515 nm.
# [3] = 7 day dosing, glucose metabolism, insulin and compound levels in db/db mice; assay type: in vivo, mouse; settings: male, mouse, around 8 hours after last dose, 50 mg/kg PO 7 days
# From the text: (§1) Significance was accepted when p<0.05.
# [4] = test system: db/db mouse model of type II diabetes; assay: as above; assay type: in vivo; settings: 50 mg/kg PO 7 days
# From the text: as §1
smiles,measurement,setting,value
"O=C1NCCN1CC(O)Cn1c2ccc(F)cc2c2cc(F)ccc21 (centres unmarked) [Compound 72, 1-(3-(3,6-difluoro-9H-carbazol-9-yl)-2-hydroxypropyl)imidazolidin-2-one]",Cry2 mRNA daytime peak in liver,[1],strongly attenuated
same,Bmal1 mRNA in liver,[1]; at ZT8 and 32 hours after original ZT0,substantially increased
same,Cry1 mRNA in liver,[1]; peak of expression in dark period,suppressed
same,Per2 mRNA in liver over 24 hours,[1]; vs vehicle,suppressed
same,Cry2 transcripts,[2]; ICR mice liver,decrease
same,increase in Bmal1 mRNA at ZT6,[2]; ICR mice liver,4 fold
same,liver Per2 expression,"[2]; ICR mice, ZT6",suppression
same,concentration at 8 h,"[3]; liver, read-out: compound level in liver",670 nM
same,concentration at 8 h,"[3]; plasma, read-out: compound level in plasma",530 nM
same,HOMA-IR,[4],93.69+/−23.60 units
same,fasting blood glucose (FBG),[4],385.0 ± 29.69 mg/dL
same,glucose AUC calculated from the OGTT,[4],35942+/−3192
same,plasma insulin at t=0,[4],3.78 ± 0.69 ng/mL
same,plasma insulin at t=2 hr,[4]; after glucose load,2.53 ± 0.50 ng/mL
same,reduction of HOMA-IR,[4]; vs vehicle,33%
same,reduction of insulin at t=0,[4]; vs vehicle,20%
same,reduction of insulin at t=2 hr,[4]; vs vehicle,21%
